Measured values from US10584105B2, “Immunoproteasome inhibitor analogs” (The Regents of the University of California, priority 2016, dated 2020).

How the values were obtained:
[1] = system: MYCN2 neuroblastoma cells; experiment: Cell viability assay (MTS), MYCN2 neuroblastoma cells; format: cell-based, human; conditions: for effect on viability of MYCN2 cells: highest concentration tested (1 μM), 24 hours exposure
Experimental: (§1) (A) MYCN2, (B) SK—N—Be(2)c, and (C) SK—N—SH neuroblastoma cells were treated with 1 (NAM-105), 5 (NAM-93), or 6 (NAM-95) for 24 hours at three different concentrations (0.01, 0.1, and 1 μM). Bortezomib (BTZ) was included as a control. Cell viability was measured using the MTS reagent as described in the Methods section. Data shown are representative of two independent experiments, each performed in triplicate wells (n=6).
(§2) To determine the effect of the thiasyrbactins proteasome inhibitors on the viability of cancer cells, three different human neuroblastoma (NB) cell lines were used. BTZ was included as a control. SK—N—Be2c, SK—N—SH cells (ATCC, Manassas, Va.) and MYCN2 cells were plated overnight in RPMI media containing 10% heat-inactivated fetal bovine serum (FBS) (Invitrogen, Carlsbad, Calif., USA), supplemented with penicillin (100 U/ml) and streptomycin (100 μg/ml). Cells were cultured at 37° C. in a humidified atmosphere containing 5% CO2 and treated with 0.01, 0.1 and 1 μM proteasome inhibitor for 24 hours. Cell viability was determined using the Cell Titer 96 AQueous One Cell Proliferation Assay (Promega) reagent MTS by measuring absorbance at 490 nm using a Multi-Mode Synergy plate reader as Ibarra-Rivera et al. Assays were done in duplicate with triplicate wells of treatment per experiment (n=6). Data were expressed as the average cell viability relative to untreated control cells using Microsoft Excel™.

[2] = system: SK—N—SH neuroblastoma cells; experiment: Cell viability assay (MTS), SK—N—SH neuroblastoma cells; format: cell-based, human; conditions: for effect on viability of SK—N—SH cells: highest concentration tested (1 μM), 24 hours exposure
Experimental: as §1, §2

[3] = biological target: T1, 20S constitutive proteasome from human erythrocytes, CT-L (β5) activity (Homo sapiens, UniProt P20618+P28074); experiment: In vitro proteasome activity assay, constitutive proteasome, CT-L (β5); format: biochemical; conditions: 1 μM
T1 construct: purchased Boston Biochem; host or cells: human erythrocytes (native, purified)
Experimental: (§3) To determine the anti-proteasome activity of the thiasyrbactins in the in vitro environment, three catalytic activities (β1, β2, β5) of the proteasome were measured as described in Ibarra-Rivera et al., Tetrahedron 67:9950-6 (2011)). […] Purified 20S constitutive proteasome from human erythrocytes or immunoproteasome from human peripheral blood mononuclear cells (PBMCs) (Boston Biochem, Cambridge, Mass.) and luminogenic substrates Z-LRR-Glo, Z-nLPnLD-Glo, and Suc-LLVY-Glo (Promega, Fitchburg, Wis.) specific for the β1, β2, and β5 (also referred to as T-L, C-L, and CT-L) catalytic subunit activities, respectively, were used. […] Equal volume of the appropriate luminogenic substrate was added to each reaction and luminescence was measured 10 minutes later using a Multi-Mode Synergy (Biotek, Inc., Winooski, Vt.) plate reader. […] The Ki-50 values for each catalytic activity were determined for each of the inhibitors using Graphpad Prism 5 software (La Jolla, Calif.) and averaged using Microsoft Excel (Redmond, Wash.).
(§4) The thiasyrbactins were evaluated for their ability to inhibit each of the catalytic subunits of the constitutive and immunoproteasomes as well as for cytotoxic activity against neuroblastoma cancer cells. […]

[4] = biological target: T2, immunoproteasome from human peripheral blood mononuclear cells (PBMCs), CT-L (β5) activity (Homo sapiens, UniProt P20618+P28062); experiment: In vitro proteasome activity assay, immunoproteasome, CT-L (β5); format: biochemical; conditions: for effect on CT-L activity of the immunoproteasome: at ≤10 μM; for effect on CT-L (chymotrypsin-like) activity of the immunoproteasome (FIG. 5): 1.0 μM, 2 hours
T2 construct: purchased Boston Biochem; host or cells: human peripheral blood mononuclear cells (native, purified)
Experimental: To determine the anti-proteasome activity of the thiasyrbactins in the in vitro environment, three catalytic activities (β1, β2, β5) of the proteasome were measured as described in Ibarra-Rivera et al., Tetrahedron 67:9950-6 (2011)). […] Purified 20S constitutive proteasome from human erythrocytes or immunoproteasome from human peripheral blood mononuclear cells (PBMCs) (Boston Biochem, Cambridge, Mass.) and luminogenic substrates Z-LRR-Glo, Z-nLPnLD-Glo, and Suc-LLVY-Glo (Promega, Fitchburg, Wis.) specific for the β1, β2, and β5 (also referred to as T-L, C-L, and CT-L) catalytic subunit activities, respectively, were used. Briefly, 2.2 ng/μL of constitutive proteasome and immunoproteosome were incubated with increasing concentration of proteasome inhibitor (0 to 10 μM) in 10 mM HEPES, pH 7.3, for two hours at 37° C. Equal volume of the appropriate luminogenic substrate was added to each reaction and luminescence was measured 10 minutes later using a Multi-Mode Synergy (Biotek, Inc., Winooski, Vt.) plate reader. Assays were done in triplicate (n=3). The Ki-50 values for each catalytic activity were determined for each of the inhibitors using Graphpad Prism 5 software (La Jolla, Calif.) and averaged using Microsoft Excel (Redmond, Wash.).
The thiasyrbactins were evaluated for their ability to inhibit each of the catalytic subunits of the constitutive and immunoproteasomes as well as for cytotoxic activity against neuroblastoma cancer cells. To test the inhibitory activity of 1 (NAM-105), 5 (NAM-93), and 6 (NAM-95), an in vitro assay was performed to test the effect of the thiasyrbactins on the three sub-catalytic activities (i.e., the CT-L, C-L, and T-L activities) of the constitutive proteasome and the immunoproteasome (Table 5).

[5] = biological target: T3, immunoproteasome from human peripheral blood mononuclear cells (PBMCs), C-L (β1) activity (Homo sapiens, UniProt P28065); experiment: In vitro proteasome activity assay, immunoproteasome, C-L (β1); format: biochemical
T3 construct: purchased Boston Biochem; host or cells: human peripheral blood mononuclear cells (native, purified)
Experimental: as §3, §4

[6] = system: ARD multiple myeloma (MM) cells; experiment: Cell viability (MTS), ARD multiple myeloma cells; format: cell-based; conditions: Homo sapiens, 24 hours, MTS assay, N=3, read-out: IC-50 cell viability ARD cells
Experimental: (§5) N=3. Cells were incubated for 24 hours in the presence of 1 (NAM-105), 5 (NAM-93), 6 (NAM-95) or DMSO (control) and cell viability measured using the MTS assay. IC-50s for ARD cells are 4.085±0.865 μM (5, NAM-93), N/A (6, NAM-95), and 1.673±0.337 μM (1, NAM-105). IC-50 for U266 cells are 3.308±0.916 μM (5, NAM-93), N/A (6, NAM-95), and 1.474±0.577 μM (1, NAM-105). N/A; not applicable (50% inhibition not reached at tested concentrations).

[7] = system: U266 multiple myeloma (MM) cells; experiment: Cell viability (MTS), U266 multiple myeloma cells; format: cell-based; conditions: Homo sapiens, U-266; 24 hours, MTS assay, N=3; read-out: IC-50 cell viability U266 cells
Experimental: as §5

[8] = system: SK—N—Be(2)c neuroblastoma cells; experiment: Cell viability assay (MTS), SK—N—Be(2)c neuroblastoma cells; format: cell-based, human; conditions: highest concentration tested (1 μM), 24 hours exposure
Experimental: as §1
as §2, with “Cells were cultured at 37° C. in a humidified atmosphere containing 5% CO2 and treated with 0.01, 0.1 and 1 μM proteasome inhibitor for 24 hours.” left out

[9] = biological target: T4, immunoproteasome from human peripheral blood mononuclear cells (PBMCs), T-L (β2) activity (Homo sapiens, UniProt P40306+P49720); experiment: In vitro proteasome activity assay, immunoproteasome, T-L (β2); format: biochemical; conditions: 1 μM
T4 construct: purchased Boston Biochem; host or cells: human peripheral blood mononuclear cells (native, purified)
Experimental: as §3, §4

Row | SMILES | effect on CT-L activity of the immunoproteasome [4] | effect on C-L activity of the immunoproteasome [5] | IC50 [6] [nM] | IC50 [7] [nM] | effect on viability of MYCN2 cells [1] | effect on viability of SK—N—Be(2)c cells [8] | effect on viability of SK—N—SH cells [2] | effect on CT-L (chymotrypsin-like) activity of the immunoproteasome (FIG. 5) [4] | inhibition vs. the trypsin-like activity of the immunoproteasome (screen, FIG. 5) [9] | further results
1 | CC(C)C[C@H](NC(=O)[C@H](Cc1ccccc1)NC(=O)c1cnccn1)B(O)O [BTZ, bortezomib, reference compound] | – | – | – | – | – | – | – | – | – | cytotoxic effects in MYCN2 cells ([1]; 0.1-1 μM, 24 hours): strong cytotoxic effects; cytotoxic effects in SK—N—SH cells ([2]; 0.1-1 μM, 24 hours): strong cytotoxic effects
2 | CCCCCCCCCCCCNC(=O)N[C@H](C(=O)N[C@H]1CSCCNC(=O)/C=C/[C@H](C)NC1=O)C(C)C [Compound 1, (S)-2-(3-Dodecylureido)-3-methyl-N-((8S,11R,E)-8-methyl-5,10-dioxo-1-thia-4,9-diazacyclododec-6-en-11-yl)butanamide] | no effect | no effect | 1670 ± 337 | 1470 ± 577 | – | – | – | – | – | activity vs. the chymotrypsin-like activity of the constitutive proteasome (screen, FIG. 5) [3]: greatest activity; viability of MYCN2 cells, % of control (DMSO) ([1]; 24 hours, of control (DMSO)): 30-50%; viability of SK—N—SH cells, % of control (DMSO) ([2]; 24 hours, of control (DMSO)): 30-50%
3 | CCCCCCCCCCCCNC(=O)N[C@H](C(=O)N[C@H]1C[S+]([O-])CCNC(=O)/C=C/[C@H](C)NC1=O)C(C)C (stereo partly drawn) [Compound 2, (2S)-2-(3-Dodecylureido)-3-methyl-N-((8S,11R,E)-8-methyl-1-oxido-5,10-dioxo-1-thia-4,9-diazacyclododec-6-en-11-yl)butanamide] | – | – | – | – | minimal effects | minimal effects | minimal effects | – | – | –
4 | CC(C)Cc1ccc([C@H](C)C(=O)N[C@H](C(=O)N[C@H]2CSCCNC(=O)/C=C/[C@H](C)NC2=O)C(C)C)cc1 [Compound 5, (S)-2-((S)-2-(4-Isobutylphenyl)propanamido)-3-methyl-N-((8S,11R,E)-8-methyl-5,10-dioxo-1-thia-4,9-diazacyclododec-6-en-11-yl)butanamide] | no effect | no effect | 4080 ± 865 | 3310 ± 916 | minimal effects | minimal effects | minimal effects | stimulate | good inhibition | –
5 | CC(C)[C@H](NC(=O)c1cnccn1)C(=O)N[C@H]1CSCCNC(=O)/C=C/[C@H](C)NC1=O [Compound 6, N—((S)-3-Methyl-1-(((8S,11R,E)-8-methyl-5,10-dioxo-1-thia-4,9-diazacyclododec-6-en-11-yl)amino)-1-oxobutan-2-yl)pyrazine-2-carboxamide] | – | – | – | – | – | – | – | stimulate | good inhibition | –
